Source: US5198358A, “Microorganism for producing C-31 desmethyl FR-900520 cyclic hemiketal immunosuppressant agent” (Merck & Co., Inc., priority 1991, dated 1993)
Values joined by “and” are separate entries in the source; they are usually repeats but may differ in a detail not shown here. Equal entries are not always repeated. “Also recorded” adds a separate entry of the source. Where two headings read alike, the source gives them in different places.

Columns and labels:
[1] = biological target: T1, 31-O-desmethylimmunomycin O-methyltransferase (DIMT) (Streptomyces hygroscopicus, UniProt Q9KID5); experiment: S-adenosyl-L-methionine: 31-O-desmethylimmunomycin O-methyltransferase (DIMT) assay
T1 sequence (Q9KID5 1-260): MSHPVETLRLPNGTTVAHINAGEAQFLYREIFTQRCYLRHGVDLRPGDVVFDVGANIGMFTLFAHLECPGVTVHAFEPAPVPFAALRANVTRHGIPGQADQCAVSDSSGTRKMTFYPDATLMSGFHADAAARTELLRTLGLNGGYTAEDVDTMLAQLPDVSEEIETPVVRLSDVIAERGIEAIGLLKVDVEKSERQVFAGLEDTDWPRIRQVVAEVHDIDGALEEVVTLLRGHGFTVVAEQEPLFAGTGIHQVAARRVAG
Method: The assay was carried out in 1 ml. mixture containing 0.025 mM 31-desmethylimmunomycin, 1 mM MgSO4 and different quantities of the enzyme source in 50 mM phosphate buffer, pH 7.5. Reaction was initiated by the addition of 1 nmole of ^14 C-SAM (S-adenosyl-L-[methyl-^14 C] methionine with the specific activity of 46 mCi/mmole. Incubation of the complete mixture was carried out at 34° C. for 20 minutes and the reaction was terminated by the addition of ethyl acetate. Product of the reaction was extracted with 2 ml of ethyl acetate and 1 ml of the extract was used for TLC and HPLC analysis. For the analysis of the radioactive reaction product (immunomycin), the ethyl acetate extract was spiked with the standard immunomycin and subjected to the TLC with a plate having plastic support. The plastic sheet was developed in chloroform:methanol (9:1) and area showing standard immunomycin under UV-light was cut and the radioactivity in the cut-strip was measured. The amount of the product formed was calculated from the measured radioactivity. For the HPLC analysis of the product of the enzyme reaction, several enzymatic reaction mixtures were pooled and the extract was subjected to the TLC analysis as above. The area on the silica gel plate showing the band having an Rf value identical with the standard immunomycin was scraped and eluted with ethyl acetate. The ethyl acetate extract was washed with water, dried under nitrogen and the residue was subjected to the HPLC analysis on Partisil 5-ODS-3 column with acetonitrile:water:phosphoric acid (65:35:0.1) as the eluting solvent. One milliliter fractions were collected and a portion of each fraction was examined for the radioactivity.
Examination of the optimal temperature, pH and metal requirement of the DIMT activity was carried out on the enzyme preparation obtained from DEAE-Sepharose column. For kinetic analysis, a preparation which had been purified through a second MonoQ column chromatography was utilized.

[2] = tested on: Splenic T-cells stimulated with ionomycin + PMA; experiment: T-cell proliferation assay (ionomycin plus PMA induced T-cell stimulation); format: cell-based, mouse; conditions: for Inhibition of T-cell activation (result in words): T-cell proliferation assay
Method: Cells were pelleted by centrifugation at 1500 rpm for 8 minutes. Contaminating red cells were removed by treating the pellet with ammonium chloride lysing buffer (GIBCO) for 2 minutes at 4° C. Cold medium was added and cells were again centrifuged at 1500 rpm for 8 minutes. T lymphocytes were then isolated by separation of the cell suspension on nylon wool columns as follows: Nylon wool columns were prepared by packing approximately 4 grams of washed and dried nylon wool into 20 ml plastic syringes. The columns were sterilized by autoclaving at 250° F. for 30 minutes. Nylon wool columns were wetted with warm (37° C.) culture medium and rinsed with the same medium. Washed spleen cells resuspended in warm medium were slowly applied to the nylon wool. The columns were then incubated in an upright position at 37° C. for 1 hour. Non-adherent T lymphocytes were eluted from the columns with warm culture medium and the cell suspensions were spun as above.
The cell suspension was immediately distributed into 96 well flat-bottom microculture plates (Costar) at 200 μl/well. […] The proliferation of T lymphocytes was assessed by measurement of tritiated thymidine incorporation. After 44 hours of culturing, the cells were pulse-labelled with 2 μCi/well of tritiated thymidine (NEN, Cambridge, Mass.). After another 4 hours of incubation, cultures were harvested on glass fiber filters using a multiple sample harvester. Radioactivity of filter discs corresponding to individual wells was measured by standard liquid scintillation counting methods (Betacounter). Mean counts per minute of replicate wells were calculated and the results expressed as percent inhibition of tritiated thymidine uptake (proliferation) as follows: [formula]

[3] = reputed; EPO Publication No. 0184162; cited from earlier work
[4] = substrate: [H][C@@]1(/C=C(\C)[C@@]2([H])OC(=O)[C@]3([H])CCCCN3C(=O)C(=O)[C@]3(O)O[C@]([H])([C@@H](OC)C[C@@H](C)C/C(C)=C/[C@@H](CC)C(=O)C[C@H](O)[C@H]2C)[C@@H](OC)C[C@H]3C)CC[C@@H](O)[C@H](O)C1; experiment: purified protein, by the assay type; conditions: other: 31-O-desmethylimmunomycin as variable substrate, 40 uM SAM; Lineweaver-Burk; pH 7.5
[5] = substrate: C[S+](CC[C@H](N)C(=O)[O-])C[C@H]1O[C@@H](n2cnc3c(N)ncnc32)[C@H](O)[C@@H]1O; experiment: purified protein, by the assay type; conditions: other: SAM as variable substrate, 25 umM 31-O-desmethylimmunomycin as cosubstrate; pH 7.5
Method: The assay was carried out in 1 ml. mixture containing 0.025 mM 31-desmethylimmunomycin, 1 mM MgSO4 and different quantities of the enzyme source in 50 mM phosphate buffer, pH 7.5. Reaction was initiated by the addition of 1 nmole of ^14 C-SAM (S-adenosyl-L-[methyl-^14 C] methionine with the specific activity of 46 mCi/mmole. Incubation of the complete mixture was carried out at 34° C. for 20 minutes and the reaction was terminated by the addition of ethyl acetate. Product of the reaction was extracted with 2 ml of ethyl acetate and 1 ml of the extract was used for TLC and HPLC analysis. For the analysis of the radioactive reaction product (immunomycin), the ethyl acetate extract was spiked with the standard immunomycin and subjected to the TLC with a plate having plastic support. The plastic sheet was developed in chloroform:methanol (9:1) and area showing standard immunomycin under UV-light was cut and the radioactivity in the cut-strip was measured. The amount of the product formed was calculated from the measured radioactivity. For the HPLC analysis of the product of the enzyme reaction, several enzymatic reaction mixtures were pooled and the extract was subjected to the TLC analysis as above. […] One milliliter fractions were collected and a portion of each fraction was examined for the radioactivity. […]

[6] = Mus musculus, T-cell, HPLC purified samples, evaluated in the same set of experiments, read-out: IC50 (biological activity)

CC[C@@H]1/C=C(\C)C[C@H](C)C[C@H](OC)[C@H]2O[C@@](O)(C(=O)C(=O)N3CCCC[C@H]3C(=O)O[C@H](/C(C)=C/[C@@H]3CC[C@@H](O)[C@H](O)C3)[C@H](C)[C@@H](O)CC1=O)[C@H](C)C[C@@H]2OC [31-O-desmethylimmunomycin]
apparent Vmax ([1]; 31-O-desmethylimmunomycin as variable substrate, 40 uM SAM, Lineweaver-Burk): 45.5 nmol/h/mg

CC[C@@H]1C=C2COC1(O)C[C@H](O)[C@@H](C)[C@@H](/C(C)=C/[C@@H]1CC[C@@H](O)[C@H](OC)C1)OC(=O)[C@@H]1CCCCN1C(=O)C(=O)[C@]1(O)O[C@H]([C@@H](OC)C[C@@H](C)C2)[C@@H](OC)C[C@H]1C [Compound II]
IC50 [2, 6]: ~6 nM
Inhibition of T-cell activation (result in words) [2]: positive inhibition of T-cell activation; also recorded: positive results

CC[C@@H]1C=C2COC1(O)C[C@H](O)[C@@H](C)[C@@H](/C(C)=C/[C@@H]1CC[C@@H](O)[C@H](O)C1)OC(=O)[C@@H]1CCCCN1C(=O)C(=O)[C@]1(O)O[C@H]([C@@H](OC)C[C@@H](C)C2)[C@@H](OC)C[C@H]1C [Compound I]
inhibition at 0.0025 µM ([2]; Mus musculus, T-cell, 2.5 nM, tritiated thymidine uptake, harvest at 48 hours, read-out: Percent of Inhibition): 0%
inhibition at 0.0049 µM ([2]; Mus musculus, T-cell, 4.9 nM, tritiated thymidine uptake, harvest at 48 hours, read-out: Percent of Inhibition): 0%
inhibition at 0.0099 µM ([2]; Mus musculus, T-cell, 9.9 nM, tritiated thymidine uptake, harvest at 48 hours, read-out: Percent of Inhibition): 39%
inhibition at 0.0197 µM ([2]; Mus musculus, T-cell, 19.7 nM, tritiated thymidine uptake, harvest at 48 hours, read-out: Percent of Inhibition): 65%
inhibition at 0.0394 µM ([2]; Mus musculus, T-cell, 39.4 nM, tritiated thymidine uptake, harvest at 48 hours, read-out: Percent of Inhibition): 89%
inhibition at 0.0788 µM ([2]; Mus musculus, T-cell, 78.8 nM, tritiated thymidine uptake, harvest at 48 hours, read-out: Percent of Inhibition): 95%
inhibition at 0.1576 µM ([2]; Mus musculus, T-cell, 157.6 nM, tritiated thymidine uptake, harvest at 48 hours, read-out: Percent of Inhibition): 98%
inhibition at 0.3152 µM ([2]; Mus musculus, T-cell, 315.2 nM, tritiated thymidine uptake, harvest at 48 hours, read-out: Percent of Inhibition): 98%
IC50 [2, 6]: ~11 nM
IC50 ([2]; Mus musculus, T-cell proliferation, Example 4, read-out: IC50): 0.0115 µg/mL and 14.5 nM
Inhibition of T-cell activation (result in words) [2]: positive inhibition of T-cell activation; also recorded: antagonist activity versus the FK-506 immunosuppressive activity
Effect of IL2 on inhibition of T-cell proliferation ([2]; addition of 50 units/ml of recombinant IL2 at the initiation of culture): reversed

O=C(O)CN(CCN(CC(=O)O)CC(=O)O)CC(=O)O [EDTA]
Inhibition of DIMT activity [1]: major inhibition
Inhibition of DIMT activity ([1]; crude extract): completely inhibited

C=CC[C@@H]1/C=C(\C)C[C@H](C)C[C@H](OC)[C@H]2O[C@@](O)(C(=O)C(=O)N3CCCC[C@H]3C(=O)O[C@H](/C(C)=C/[C@@H]3CC[C@@H](O)[C@H](OC)C3)[C@H](C)[C@@H](O)CC1=O)[C@H](C)C[C@@H]2OC [FR900506, reference compound]
Effectiveness relative to cyclosporin [3]: 100 times
inhibition at 0.01 µg/mL ([2]; Mus musculus, T-cell, 10 ng/ml, standard): 99%

CC[C@@H]1/C=C(\C)C[C@H](C)C[C@H](OC)[C@H]2O[C@@](O)(C(=O)C(=O)N3CCCC[C@H]3C(=O)O[C@H](/C(C)=C/[C@@H]3CC[C@@H](O)[C@H](OC)C3)[C@H](C)[C@@H](O)CC1=O)[C@H](C)C[C@@H]2OC [FR-900520, 17-Ethyl-1,14-dihydroxy-12-[2-(4-hydroxy-3-methoxycyclohexyl)-1-methylvinyl]-23-25-dimethoxy-13,19,21,27-tetramethyl-11,28-dioxa-4-azatricyclo [22.3.1.0^4,9]octacos-18-ene-2,3,10,16-tetraone]
IC50 [2, 6]: ~1 nM

Nc1ncnc2c1ncn2[C@@H]1O[C@H](CSCC[C@H](N)C(=O)O)[C@@H](O)[C@H]1O [S-adenosyl-homocysteine (SAH), S-adenosyl-homocysteine]
Inhibition of DIMT activity [1]: major inhibition

N.N.O=S(=O)(O)O [ammonium sulfate]
Inhibition of DIMT activity ([1]; crude extract): inhibited

Nc1ncnc2c1ncn2[C@@H]1O[C@H](C[C@@H](N)CC[C@H](N)C(=O)O)[C@@H](O)[C@H]1O [sinefungin]
Inhibition of DIMT activity [1]: major inhibition

B1: 31-O-desmethylimmunomycin O-methyltransferase (DIMT) (Streptomyces hygroscopicus subsp. ascomyceticus) (protein)
chain: MSHPVETLRLPNGTTVAHINAGEAQFLYREIFTQRCYLRHGVDLRPGDVVFDVGANIGMFTLFAHLECPGVTVHAFEPAPVPFAALRANVTRHGIPGQADQCAVSDSSGTRKMTFYPDATLMSGFHADAAARTELLRTLGLNGGYTAEDVDTMLAQLPDVSEEIETPVVRLSDVIAERGIEAIGLLKVDVEKSERQVFAGLEDTDWPRIRQVVAEVHDIDGALEEVVTLLRGHGFTVVAEQEPLFAGTGIHQVAARRVAG
Km [4]: 11 µM
Km [5]: 12.5 µM
Vmax [5]: 100 nmol/h/mg
